Measured values reported in patent publication US20100022614A1, “PHARMACEUTICAL COMPOSITION FOR EXTERNAL APPLICATION AND ADHESIVE SKIN PATCH” (priority 2006, published 2010).
One block for each compound: values may come before it.

Key:
Format in all cases: physicochemical
[1] = Drug solubility test (Test Example 1): amount of LOX dissolved in 1 g of additive, visual observation
Procedure: The amount of dissolution of loxoprofen sodium (LOX) with respect to 1 g of each additive was determined by visual observation.

[2] = Drug stability test (Test Example 2): loxoprofen sodium in solvent systems left at 60° C., HPLC; conditions: for Loxoprofen sodium content (%) (vs. initial value): 60° C.
Procedure: To each solvent was added 0.1 g of loxoprofen sodium, and the mixture was stirred at 25° C. overnight. The stirred mixture was filtrated to obtain a filtrate for use as a sample solution, and this sample solution was left to stand at 60° C. Thereafter, the mass of loxoprofen sodium being present in each solvent system was measured with high performance liquid chromatography (HPLC) 0 months later (initial value), 0.5 months later, and 1.0 month later. The results are shown in FIG. 1 and Table 2 in terms of the ratio of each measurement with respect to the initial value.

[3] = Drug stability test (Test Example 3): loxoprofen sodium in solvent systems, autoclaving at 120° C.; conditions: for Loxoprofen sodium content (%) (vs. initial value): autoclaving 120° C.
Procedure: To each solvent was added 0.1 g of loxoprofen sodium, and the mixture was stirred at 25° C. overnight. The stirred mixture was filtrated to obtain a filtrate for use as a sample solution. This sample solution was subjected to an autoclaving treatment at 120° C., and the mass of loxoprofen sodium being present in each solvent system was measured at time 0 (initial value), 2 hrs later, 4 hrs later, and 6 hrs later. The results are shown in FIG. 2 and Table 3 in terms of the ratio of each measurement with respect to the initial value. The measurement procedure was similar to Test Example 2.

[4] = Drug stability test (Test Example 4, FIG. 3): loxoprofen/lactic acid with additives, with or without NMP; conditions: for stability of LOX (in words): NMP added to LOX
Procedure: By a similar procedure to Test Example 3 except that 1 g of an additive (aspartic acid, isostearic acid, disodium edetate, a carboxyvinyl polymer or polyvinylpyrrolidone) was added to a mixed solution of 0.1 g of loxoprofen and 5 g of lactic acid, the mass of loxoprofen sodium being present in each solvent system was measured.
In addition, by a similar procedure to Test Example 3 except that 1 g of N-methyl-2-pyrrolidone, and 1 g of an additive (aspartic acid, isostearic acid, disodium edetate, the carboxyvinyl polymer or polyvinylpyrrolidone) were further mixed, the mass of loxoprofen sodium being present in each solvent system was measured. The results are shown in FIG. 3 in terms of the ratio of each measurement with respect to the initial value.

[5] = Drug stability test (Test Example 5, FIG. 4): loxoprofen sodium or felbinac in lactic acid with NMP; conditions: 0.1 g drug in 5 g lactic acid with 1 g or 10 g NMP; autoclaving 120° C.
Procedure: By a similar procedure to Test Example 3 except that either 1 g or 10 g of N-methyl-2-pyrrolidone was further mixed with a mixed solution of 0.1 g of loxoprofen sodium or felbinac and 5 g of lactic acid, the mass of the drug being present in each solvent system was measured.

[6] = Drug stability test (Test Example 6, FIG. 5): diclofenac sodium in lactic acid or glycerin with NMP; conditions: autoclaving 120° C.
Procedure: By a similar procedure to Test Example 5 except that a mixed solution of 0.1 g of diclofenac sodium and 5 g of lactic acid or glycerin was used, the mass of the drug being present in each solvent system was measured.

[7] = Drug stability test (Test Example 7, FIG. 6): tulobuterol in acetic acid with NMP; conditions: 0.1 g drug in 5 g acetic acid with 1 g or 10 g NMP; autoclaving 120° C.
Procedure: By a similar procedure to Test Example 5 except that a mixed solution of 0.1 g of tulobuterol and 5 g of acetic acid was used, the mass of the drug being present in each solvent system was measured.

amount of dissolution of loxoprofen sodium (in words) ([1]; lactic acid and N-methyl-2-pyrrolidone used in combination): markedly great | amount of dissolution of loxoprofen sodium (in words) ([1]; lactic acid or N-methyl-2-pyrrolidone used alone, or other composition): significantly small | Amount of dissolved LOX ([1]; per 1 g of additive: 10% Citric anhydride + NMP, mixing ratio 1:10): 0.1 g | Amount of dissolved LOX ([1]; per 1 g of additive: 20% Citric anhydride + NMP, mixing ratio 1:5): 0.1 g | Amount of dissolved LOX ([1]; per 1 g of additive: 89% Phosphoric acid): 0.25 g | Amount of dissolved LOX ([1]; per 1 g of additive: Behenic acid + NMP, mixing ratio 1:1): 0 g | Amount of dissolved LOX ([1]; per 1 g of additive: Cetyl lactate + NMP, mixing ratio 1:4): 0 g | Amount of dissolved LOX ([1]; per 1 g of additive: Crotamiton): 0 g | Amount of dissolved LOX ([1]; per 1 g of additive: Isostearic acid + NMP, mixing ratio 1:1): 0 g | Amount of dissolved LOX ([1]; per 1 g of additive: L-menthol + NMP, mixing ratio 1:1): 0 g | Amount of dissolved LOX ([1]; per 1 g of additive: Lactic acid): 0.25 g | Amount of dissolved LOX ([1]; per 1 g of additive: Lactic acid + NMP, mixing ratio 1:2): 1.5 g | Amount of dissolved LOX ([1]; per 1 g of additive: Malic acid + NMP, mixing ratio 1:4): 0 g | Amount of dissolved LOX ([1]; per 1 g of additive: Myristic acid + NMP, mixing ratio 1:10): 0 g | Amount of dissolved LOX ([1]; per 1 g of additive: NMP): 0 g | Amount of dissolved LOX ([1]; per 1 g of additive: Oleyl alcohol): 0 g | Amount of dissolved LOX ([1]; per 1 g of additive: Peppermint oil): 0 g | Amount of dissolved LOX ([1]; per 1 g of additive: Phosphoric acid (89%) + NMP, mixing ratio 1:2): 0 g | Amount of dissolved LOX ([1]; per 1 g of additive: Polyethylene glycol 400): 0.25 g | Amount of dissolved LOX ([1]; per 1 g of additive: Stearic acid + NMP, mixing ratio 1:1): 0 g | Amount of dissolved LOX ([1]; per 1 g of additive: Tartaric acid + NMP, mixing ratio 1:2): 0 g | Amount of dissolved LOX ([1]; per 1 g of additive: Triacetin): 0 g | Loxoprofen sodium content (%) (vs. initial value) ([2]; solvent system Conc. glycerin 5 g, 0.5 months later): 87.2% | Loxoprofen sodium content (%) (vs. initial value) ([2]; solvent system Conc. glycerin 5 g, 1.0 month later): 82.4% | Loxoprofen sodium content (%) (vs. initial value) ([2]; solvent system Lactic acid 5 g + NMP0.1 g, 0.5 months later): 88.2% | Loxoprofen sodium content (%) (vs. initial value) ([2]; solvent system Lactic acid 5 g + NMP0.1 g, 1.0 month later): 82.7% | Loxoprofen sodium content (%) (vs. initial value) ([2]; solvent system Lactic acid 5 g + NMP1.0 g, 0.5 months later): 91.3% | Loxoprofen sodium content (%) (vs. initial value) ([2]; solvent system Lactic acid 5 g + NMP1.0 g, 1.0 month later): 85.8% | Loxoprofen sodium content (%) (vs. initial value) ([2]; solvent system Lactic acid 5 g + NMP10.0 g, 0.5 months later): 99.8% | Loxoprofen sodium content (%) (vs. initial value) ([2]; solvent system Lactic acid 5 g + NMP10.0 g, 1.0 month later): 99.4% | Loxoprofen sodium content (%) (vs. initial value) ([2]; solvent system Lactic acid 5 g, 0.5 months later): 83.1% | Loxoprofen sodium content (%) (vs. initial value) ([2]; solvent system Lactic acid 5 g, 1.0 month later): 79.9% | Loxoprofen sodium content (%) (vs. initial value) ([2]; solvent system Peppermint oil 5 g, 0.5 months later): 83.2% | Loxoprofen sodium content (%) (vs. initial value) ([2]; solvent system Peppermint oil 5 g, 1.0 month later): 77.7% | time dependent lowering of the content of loxoprofen sodium (in words) ([2]; solvent system of conc. glycerin, “polysorbate 80”, mentha oil or lactic acid): greatly exhibited | Loxoprofen sodium content (%) (vs. initial value) ([2]; solvent system “Polysorbate 80 g” 5 g, 0.5 months later): 83.5% | Loxoprofen sodium content (%) (vs. initial value) ([2]; solvent system “Polysorbate 80 g” 5 g, 1.0 month later): 69.1% | Loxoprofen sodium content (%) (vs. initial value) ([3]; solvent system Lactic acid 5 g + NMP0.1 g, 2 hrs): 96.0% | Loxoprofen sodium content (%) (vs. initial value) ([3]; solvent system Lactic acid 5 g + NMP0.1 g, 4 hrs): 90.7% | Loxoprofen sodium content (%) (vs. initial value) ([3]; solvent system Lactic acid 5 g + NMP0.1 g, 6 hrs): 87.4% | Loxoprofen sodium content (%) (vs. initial value) ([3]; solvent system Lactic acid 5 g + NMP1.0 g, 2 hrs): 98.0% | Loxoprofen sodium content (%) (vs. initial value) ([3]; solvent system Lactic acid 5 g + NMP1.0 g, 4 hrs): 94.2% | Loxoprofen sodium content (%) (vs. initial value) ([3]; solvent system Lactic acid 5 g + NMP1.0 g, 6 hrs): 91.9% | Loxoprofen sodium content (%) (vs. initial value) ([3]; solvent system Lactic acid 5 g + NMP10.0 g, 2 hrs): 99.4% | Loxoprofen sodium content (%) (vs. initial value) ([3]; solvent system Lactic acid 5 g + NMP10.0 g, 4 hrs): 99.8% | Loxoprofen sodium content (%) (vs. initial value) ([3]; solvent system Lactic acid 5 g + NMP10.0 g, 6 hrs): 99.6% | Loxoprofen sodium content (%) (vs. initial value) ([3]; solvent system Lactic acid 5 g, 2 hrs): 94.8% | Loxoprofen sodium content (%) (vs. initial value) ([3]; solvent system Lactic acid 5 g, 4 hrs): 90.3% | Loxoprofen sodium content (%) (vs. initial value) ([3]; solvent system Lactic acid 5 g, 6 hrs): 86.8% | time dependent lowering of the content of loxoprofen sodium (in words) ([3]; solvent system including lactic acid and N-methyl-2-pyrrolidone (Tables 2 to 3, FIGS. 1 to 2)): markedly suppressed | stability of LOX (in words) ([4]; lactic acid and adipic acid): favorable stability | stability of LOX (in words) ([4]; lactic acid and benzoic acid): favorable stability | stability of the drug (FIG. 4, in words) [5]: significantly improved
Structure (SMILES): CC(C(=O)O)c1ccc(CC2CCCC2=O)cc1 (centres unmarked) [LOX, loxoprofen sodium]
content of LOX versus control group without the additive (FIG. 3) ([4]; lactic acid 5 g + 1 g additive having a carboxylic acid group (aspartic acid, isostearic acid, disodium edetate, carboxyvinyl polymer), irrespective of the presence of NMP, 120° C.): almost a similar level to the LOX content in the control group | content of LOX versus control group (FIG. 3) ([4]; lactic acid 5 g + 1 g polyvinylpyrrolidone, irrespective of the presence of NMP, 120° C.): increased to a level higher than the content of LOX in the control group

reduction of stability caused by blending glycerin, effect of adding NMP (FIG. 5) ([6]; 0.1 g drug in 5 g glycerin with 1 g or 10 g NMP): compensated | reduction of stability caused by blending lactic acid, effect of adding NMP (FIG. 5) ([6]; 0.1 g drug in 5 g lactic acid with 1 g or 10 g NMP): greatly compensated
Structure (SMILES): O=C(O)Cc1ccccc1Nc1c(Cl)cccc1Cl [diclofenac sodium]

stability of the drug (FIG. 4, in words) [5]: significantly improved
Structure (SMILES): O=C(O)Cc1ccc(-c2ccccc2)cc1 [felbinac]

stability of the drug (FIG. 6, in words) [7]: greatly improves
Structure (SMILES): CC(C)(C)NCC(O)c1ccccc1Cl (centres unmarked) [tulobuterol]
